Source: patent US10765659B2, “Potentiated tulathromycin” (SEPTEOS, priority 2016, dated 2020)
Like-named read-outs stand apart in the source and are kept apart here.

Legend:
[1] = system: strain 13043 (Actinobacillus pleuropneumoniae); assay: Growth test / bactericidal action test in liquid medium; format: cell-based; details: strain 13043, DMSO, tulathromycin at 16 times its MIC, cineole at 1 mg/L
Description: (§1) Growth tests are performed in liquid medium with prior dispersion of the antibiotic booster in a suitable solvent (here DMSO).
(§2) Bacterial growth kinetics are measured in the presence of tulathromycin (at a concentration of 4 or 16 times its MIC); tulathromycin (at a concentration of 4 or 16 times its MIC) and 1,8-cineole at a mass ratio of 1:1; and tulathromycin (at a concentration of 4 or 16 times its MIC) and 1 mg of 1,8-cineole.
2 Growth Test on Strain 13043 (Actinobactllus Pleuropneumonlae) […]
diamond: control (bacteria alone in DMSO) square: tulathromycin diluted in DMSO at a concentration of 16 times its MIC triangle: tulathromycin and cineole, diluted in DMSO, tulathromycin is at a concentration of 16 times its MIC, cineole at 1 mg/L
Cross (x): cineole control, at 1 mg/L

Staphylococcus [2] = assay: Resistance test: resistant mutant colonies on Mueller Hinton plate; format: cell-based
Description: One hundred microlitres of a Mueller Hinton broth culture of the strain to be studied (heavy inoculum>10^10 CFU/mL) is spread on a Mueller Hinton plate containing an oil concentration equal to 0.5/1/2/4 times the MIC of tulathromycin. After 48 hours of incubation, the presence or absence of colonies likely to be resistant mutants are observed.

Enterococcus = assay: MIC measurement in solid agar medium (CLSI); format: cell-based
Description: (§3) “MIC” means “minimal inhibitory concentration”, which is the lowest concentration of substance at which microbial growth is no longer observed after 18 to 24 hours of contact under conditions favourable to microbial growth.
(§4) The minimum inhibitory concentration measurement tests are performed in a solid agar medium according to current international standards (CLSI standards M7-A9 January 12): dispersion of the compounds to be tested in Mueller Hinton agar. An adaptation relating to the hydrophobicity of the compounds and compositions is however necessary to disperse them in the medium: the compounds are diluted in a solvent. The compounds and compositions incorporated in the agar may be first diluted in one or more solvents (Tween® 80 diluted in water, Tween@ 80 diluted in propylene, DMSO diluted in water). The medium may be cation-adjusted. The strains are deposited on the surface of the agar with a Steers apparatus. In the examples, various methods for dissolving the products are tested in parallel to circumvent problems related to the water/solvent distribution coefficient of the molecules (antimicrobial and potentiator) as the bacteria grow only in the aqueous phase. The technical constraint will not affect the in vivo tests. The same dilution methods can be used in liquid media (microplates and tubes). The same methodology is used with fungi.
(§5) MIC measurement: The minimum inhibitory concentration measurement tests are performed in solid agar medium according to current international standards (CLSI standards), according to the protocol defined above. The compounds and compositions incorporated in the agar may be first diluted in one or more solvents (ethanol, or DMSO diluted in water).

Staphylococcus [3] = assay: MIC measurement in solid agar medium (CLSI); format: cell-based
Description: as §3, §4, §5

Streptococcus suis = assay: MIC measurement in solid agar medium (CLSI); format: cell-based
Description: as §3, §4, §5

E. coli = assay: MIC measurement in solid agar medium (CLSI); format: cell-based
Description: as §3, §4, §5

[4] = system: Actinobacillus pleuropneumoniae; assay: MIC measurement in solid agar medium (CLSI); format: cell-based
Description: as §3, §4, §5

[5] = rat; cited from earlier work
[6] = cat; cited from earlier work
[7] = system: microorganisms grown in planktonic and biofilm cultures; details: Hendry et al., J Antimicrob Chemother 2009; cited from earlier work
strain 13120 (E. coli) = assay: Growth test / bactericidal action test in liquid medium; format: cell-based; details: strain 13120, DMSO, tulathromycin at 4 times its MIC, cineole at mass ratio 1:1 or 1 mg/L
Description: as §1, §2
1 Growth Test on Strain 13120 (Genus E. coli) […]
diamond: control (bacteria alone in DMSO) square: tulathromycin diluted in DMSO at a concentration of 4 times its MIC triangle: tulathromycin and cineole, diluted in DMSO, tulathromycin is at a concentration of 4 times its MIC, the tulathromycin/cineole mass ratio is 1:1 Cross (x): tulathromycin and cineole, diluted in DMSO, tulathromycin is at a concentration of 4 times its MIC, cineole at 1 mg/L

In the case of `CCCNC[C@]1(O)[C@H](C)O[C@@H](O[C@H]2[C@H](C)[C@@H](O[C@@H]3O[C@H](C)C[C@H](N(C)C)[C@H]3O)[C@](C)(O)C[C@@H](C)CN[C@H](C)[C@@H](O)[C@](C)(O)[C@@H](CC)OC(=O)[C@@H]2C)C[C@@]1(C)OC` [ATB], the “Bacterial growth kinetics / number of bacteria (FIG. 2)” value [1] was “bacteriostatic”, the Development of mutants (Staphylococcus [2]; S. aureus (strain 8147), summary of Table 4) was “countless mutants” and the “Colonies likely to be resistant mutants after 48 hours” value (“Colonies likely” for short) (Staphylococcus [2]; strain 8146, ethanol solvent, 0.5 times the MIC of tulathromycin) was “overgrown”. For the same compound, the “Colonies likely” value (Staphylococcus [2]; strain 8146, ethanol solvent, 1 times the MIC of tulathromycin) was “overgrown”, the “Colonies likely” value (Staphylococcus [2]; strain 8146, ethanol solvent, 2 times the MIC of tulathromycin) was “overgrown” and the “Colonies likely” value (Staphylococcus [2]; strain 8146, ethanol solvent, 4 times the MIC of tulathromycin) was 0. The “Colonies likely” value (Staphylococcus [2]; strain 8147, ethanol solvent, 0.5 times the MIC of tulathromycin) was “overgrown”, the “Colonies likely” value (Staphylococcus [2]; strain 8147, ethanol solvent, 1 times the MIC of tulathromycin) was “overgrown” and the “Colonies likely” value (Staphylococcus [2]; strain 8147, ethanol solvent, 2 times the MIC of tulathromycin) was “overgrown”. The “Colonies likely” value (Staphylococcus [2]; strain 8147, ethanol solvent, 4 times the MIC of tulathromycin) was “overgrown”, the MIC (Enterococcus; Enterococcus strain without reference (Table 3, r6), EtOH) was 0.9 µg/mL and the MIC (Enterococcus; Enterococcus strain without reference (Table 3, r7), EtOH) was 1.7 µg/mL. The MIC (Enterococcus; strain 8152, EtOH) was 1 µg/mL, the MIC (Enterococcus; strain 8153, EtOH) was 1.42 µg/mL and the MIC (Staphylococcus [3]; strain 8146, EtOH) was 0.45 µg/mL. It also gave an MIC (Staphylococcus [3]; strain 8147, EtOH) of 0.45 µg/mL, an MIC (Staphylococcus [3]; strain 8148, EtOH) of 0.45 µg/mL and an MIC (Staphylococcus [3]; strain 8149, EtOH) of 0.45 µg/mL. For the same compound, the MIC (Staphylococcus [3]; strain 8238, EtOH) was 0.45 µg/mL, the MIC (Staphylococcus [3]; strain 12216, EtOH) was 2.53 µg/mL and the MIC (Staphylococcus [3]; strain 13218, EtOH) was 1.07 µg/mL. The MIC (Staphylococcus [3]; strain 13221, EtOH) was 1.07 µg/mL, the MIC (Streptococcus suis; strain 13092, DMSO) was 1.1 µg/mL and the MIC (Streptococcus suis; strain 13092, EtOH) was 1.1 µg/mL. For the same compound, the MIC (E. coli; strain 13120, DMSO) was 2 µg/mL, the MIC (E. coli; strain 13120, EtOH) was 2.7 µg/mL and the MIC of tulathromycin (E. coli; strain 13120, value used for growth test) was 2 µg/mL. It also gave an MIC (E. coli; strain 13121, DMSO) of 2 µg/mL, an MIC (E. coli; strain 13121, EtOH) of 2.7 µg/mL and an MIC (E. coli; strain 13122, DMSO) of 2 µg/mL. It also gave an MIC (E. coli; strain 13122, EtOH) of 2 µg/mL, an MIC (E. coli; strain 13123, DMSO) of 2 µg/mL and an MIC (E. coli; strain 13123, EtOH) of 2 µg/mL. The MIC (E. coli; strain 13124, DMSO) was 1.5 µg/mL, the MIC (E. coli; strain 13124, EtOH) was 2 µg/mL and the MIC (E. coli; strain 13125, DMSO) was 1.5 µg/mL. It also gave an MIC (E. coli; strain 13125, EtOH) of 1.5 µg/mL, an MIC (E. coli; strain 13126, DMSO) of 2 µg/mL and an MIC (E. coli; strain 13126, EtOH) of 2 µg/mL. It also gave an MIC (E. coli; strain 13128, DMSO) of 2 µg/mL, an MIC (E. coli; strain 13128, EtOH) of 2 µg/mL and an MIC (E. coli; strain 13129, DMSO) of 2.7 µg/mL. The MIC (E. coli; strain 13129, EtOH) was 3.6 µg/mL, the MIC (E. coli; strain 13130, DMSO) was 2 µg/mL and the MIC (E. coli; strain 13130, EtOH) was 3.6 µg/mL. It also gave an MIC (E. coli; strain 13131, DMSO) of 1.5 µg/mL, an MIC (E. coli; strain 13131, EtOH) of 1.5 µg/mL and an MIC (E. coli; strain 13132, DMSO) of 2 µg/mL. For the same compound, the MIC (E. coli; strain 13132, EtOH) was 2.7 µg/mL, the MIC (E. coli; strain 13133, DMSO) was 1.5 µg/mL and the MIC (E. coli; strain 13133, EtOH) was 2 µg/mL. For the same compound, the MIC (E. coli; strain 13134, DMSO) was 1.5 µg/mL, the MIC (E. coli; strain 13134, EtOH) was 1.5 µg/mL and the MIC (E. coli; strain 13170, DMSO) was 1.5 µg/mL. It also gave an MIC (E. coli; strain 13170, EtOH) of 2 µg/mL, an MIC (E. coli; strain 13171, DMSO) of 2.7 µg/mL and an MIC (E. coli; strain 13171, EtOH) of 3.6 µg/mL. The MIC (E. coli; strain 13172, DMSO) was 1.5 µg/mL, the MIC (E. coli; strain 13172, EtOH) was 1.5 µg/mL and the MIC (E. coli; strain 13173, DMSO) was 1.5 µg/mL. It also gave an MIC (E. coli; strain 13173, EtOH) of 1.5 µg/mL, an MIC (E. coli; strain 13174, DMSO) of 2 µg/mL and an MIC (E. coli; strain 13174, EtOH) of 2 µg/mL. The MIC (E. coli; strain 13175, DMSO) was 2 µg/mL, the MIC (E. coli; strain 13175, EtOH) was 3.6 µg/mL and the MIC (E. coli; strain Q54IE2, EtOH) was 0.8 µg/mL. For the same compound, the MIC (E. coli; strain Q96CEB, EtOH) was 1.9 µg/mL, the MIC ([4]; strain 13012, DMSO) was 2 µg/mL and the MIC ([4]; strain 13012, EtOH) was 2 µg/mL. It also gave an MIC ([4]; strain 13030, DMSO) of 0.5 µg/mL, an MIC ([4]; strain 13030, EtOH) of 0.5 µg/mL and an MIC ([4]; strain 13032, DMSO) of 0.5 µg/mL. For the same compound, the MIC ([4]; strain 13032, EtOH) was 0.5 µg/mL, the MIC ([4]; strain 13041, DMSO) was 0.5 µg/mL and the MIC ([4]; strain 13041, EtOH) was 0.5 µg/mL. The MIC ([4]; strain 13042, DMSO) was 0.5 µg/mL, the MIC ([4]; strain 13042, EtOH) was 0.6 µg/mL and the MIC ([4]; strain 13043, DMSO) was 0.5 µg/mL. The MIC ([4]; strain 13043, EtOH) was 0.6 µg/mL, the MIC of tulathromycin ([4]; strain 13043, value used for growth test) was 0.5 mg and the MIC ([4]; strain 13045, DMSO) was 0.5 µg/mL. For the same compound, the MIC ([4]; strain 13045, EtOH) was 0.6 µg/mL.

For `Cc1ccc(C(C)C)cc1O` [carvacrol], the “lowest oral lethal dose” value [5] is listed as 100 mg/kg and the “lowest oral lethal dose” value [6] is listed as 100 mg/kg.

In the case of `CC12CCC(CC1)C(C)(C)O2` [cineole, 1,8-cineole], the “MIC of cineole in the publication” value [7] is listed as 8000 to 64000 µg/mL, the “Bacterial growth kinetics / number of bacteria (FIG. 2)” value [1] is listed as “significantly decrease the number of bacteria” and the Development of mutants (Staphylococcus [2]; strain 8146, cineole added to tulathromycin, summary of Table 5) is listed as “decreases the development of mutants”. The “Bacterial growth kinetics / bactericidal action (FIG. 1)” value (strain 13120 (E. coli)) was “increase the bactericidal action of tulathromycin”.
